Results taken from patent US20040029186A1, “Methods” (priority 2000, published 2004).

Target: T1, α4β1 integrin (Homo sapiens, UniProt P05556+P13612)
T1 construct: endogenous in cells; host or cells: cells of heparinised human whole blood
Assay: Human whole blood cell adhesion to VCAM-1 coated magnetic beads, in vitro
Assay type: cell-based
Conditions: 1 mM manganese chloride, 1 h room temperature, control samples without antibody
Procedure: Whole human or animal blood (e.g. rat, mouse, dog), was collected into sodium heparin (10 Units/ml blood).
487.5 μl aliquots of heparinised naive human or animal whole blood were dispensed into reaction tubes containing 7.5 μl biotinylated VCAM beads and either 5 μl of a solution of a compound believed to be an α4β1 integrin inhibitor or, as a control, 5 μl of the solvent used to dissolve the compound and either with or without 2 μl anti-α4 antibody. […]
After this time the wash procedure with chilled PBS was carried out three times before the addition of 130 μl per well of 2% Triton X-100 (Sigma T-9284) in distilled water to lyse the cells adhering to the beads. The beads were once again captured by the Dynal MPC® magnet, 100 μl aliquots of the solution from each well was transferred to a clean 96 well flat-bottomed plate and the fluorescence of each well measured using an Fmax fluorimeter (Molecular Devices, Crawley, West Sussex), excitation 485 nm, emission 538 nm. […]
The tubes were rotated on a windmill mixer for 2 h at 4° C. before addition of 500 μl ice cold PBS and placing on a Dynal MPC® magnet for 10 min to recover the beads. […] The fluorescence of each well was measured using a fluorimeter, excitation 485 nm, emission 538 nm. Results were expressed as a percentage of the fluorescence in control samples containing no antibody. […]

T1 sequence (P13612 34-1032): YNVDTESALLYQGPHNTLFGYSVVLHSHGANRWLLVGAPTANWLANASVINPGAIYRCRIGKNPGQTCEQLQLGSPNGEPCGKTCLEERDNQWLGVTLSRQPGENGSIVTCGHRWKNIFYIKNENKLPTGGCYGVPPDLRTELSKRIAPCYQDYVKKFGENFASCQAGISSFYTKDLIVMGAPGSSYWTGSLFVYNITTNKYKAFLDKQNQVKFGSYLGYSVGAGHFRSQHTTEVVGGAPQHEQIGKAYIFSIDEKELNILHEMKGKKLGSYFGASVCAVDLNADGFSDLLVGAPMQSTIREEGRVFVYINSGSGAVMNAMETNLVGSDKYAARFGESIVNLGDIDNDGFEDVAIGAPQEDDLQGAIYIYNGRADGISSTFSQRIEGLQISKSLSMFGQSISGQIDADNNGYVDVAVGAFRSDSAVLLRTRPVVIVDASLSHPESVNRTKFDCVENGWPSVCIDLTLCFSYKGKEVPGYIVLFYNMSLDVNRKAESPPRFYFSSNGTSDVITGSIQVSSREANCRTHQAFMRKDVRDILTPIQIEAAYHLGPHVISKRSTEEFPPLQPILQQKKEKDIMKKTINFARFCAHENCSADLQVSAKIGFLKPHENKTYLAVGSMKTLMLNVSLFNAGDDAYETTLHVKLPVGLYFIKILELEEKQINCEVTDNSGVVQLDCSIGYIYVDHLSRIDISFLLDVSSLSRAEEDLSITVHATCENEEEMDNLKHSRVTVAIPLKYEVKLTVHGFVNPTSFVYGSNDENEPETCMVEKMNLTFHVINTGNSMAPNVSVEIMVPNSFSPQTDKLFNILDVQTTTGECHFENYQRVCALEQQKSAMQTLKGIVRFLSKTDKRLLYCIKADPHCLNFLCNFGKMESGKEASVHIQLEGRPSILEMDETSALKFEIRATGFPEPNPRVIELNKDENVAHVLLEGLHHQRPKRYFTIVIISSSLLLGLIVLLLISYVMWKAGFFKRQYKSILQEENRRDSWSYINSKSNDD
T1 sequence (P05556 21-798): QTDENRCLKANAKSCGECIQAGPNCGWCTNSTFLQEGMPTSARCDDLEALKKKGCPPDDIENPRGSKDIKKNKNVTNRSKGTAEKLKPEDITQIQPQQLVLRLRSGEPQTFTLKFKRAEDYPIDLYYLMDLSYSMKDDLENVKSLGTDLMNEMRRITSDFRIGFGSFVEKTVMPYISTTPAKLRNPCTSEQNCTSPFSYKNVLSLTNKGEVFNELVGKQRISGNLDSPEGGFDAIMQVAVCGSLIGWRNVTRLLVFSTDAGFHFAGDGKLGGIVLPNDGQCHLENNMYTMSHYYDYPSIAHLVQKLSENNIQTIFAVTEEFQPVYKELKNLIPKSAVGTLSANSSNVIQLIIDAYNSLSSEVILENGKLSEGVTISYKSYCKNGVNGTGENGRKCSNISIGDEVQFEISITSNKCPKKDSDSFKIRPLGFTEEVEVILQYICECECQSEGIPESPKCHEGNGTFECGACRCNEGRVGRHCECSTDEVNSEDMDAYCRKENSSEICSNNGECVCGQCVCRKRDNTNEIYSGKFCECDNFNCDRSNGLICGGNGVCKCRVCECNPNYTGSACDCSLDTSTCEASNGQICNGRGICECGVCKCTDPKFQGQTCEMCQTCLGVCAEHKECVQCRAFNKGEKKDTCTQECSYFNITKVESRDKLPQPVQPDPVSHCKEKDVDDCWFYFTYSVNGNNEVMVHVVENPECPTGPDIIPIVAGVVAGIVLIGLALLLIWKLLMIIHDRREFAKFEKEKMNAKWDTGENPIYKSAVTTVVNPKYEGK

Substance: Manganese chloride [Mn^2+]
- increase of whole blood cell adhesion to VCAM-1 coated beads: approximately 2 fold
